Experimental data published in patent US20070287699A1, “ANTIVIRAL AGENTS” (ViroBay, Inc., priority 2006, published 2007).

System: HCV replicon RNA replication in human Huh7 hepatoma cells
Assay: HCV replicon assay (activity levels from either or both of HCV replicon assay 1, Huh7/Clone A RT-qPCR, and assay 2, Huh7 ET luc-ubi-neo/ET)
Type: cell-based, Hepatitis C virus (HCV)
Details: Hepatitis C virus, Huh-7, either or both HCV replicon assays: Huh7/Clone A, 48 hours, 72 hours, Luc activity or RT-PCR, read-out: inhibit HCV replication at IC50 levels or estimated IC50 levels
How it was run: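 Huh7/Clone A subgenomic replicon cells treated 48 h at 37° C. with 7 serial dilutions in triplicate (0.5% DMSO final). Replicon RNA measured by TaqMan RT-qPCR on the neo gene, normalized to RiboGreen total RNA; untreated cells set as 100% for IC50.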

| Structure (SMILES) | IC50 [µM] |
| --- | --- |
| O=c1c(-c2noc(Cc3ccccc3)n2)cn(Cc2ccc(C(F)(F)F)cc2)c2cc(N3CCNCC3)c(F)cc12 [Compound 70, 3-(5-benzyl-[1,2,4]oxadiazol-3-yl)-6-fluoro-7-piperazin-1-yl-1-(4-trifluoromethyl-benzyl)-1H-quinolin-4-one] | < 0.5 |
| O=c1c(-c2noc(Cc3ccccc3)n2)cn(Cc2ccc(C(F)(F)F)cc2)c2cc(N3CCCNCC3)c(F)cc12 [Compound 71, 3-(5-benzyl-[1,2,4]oxadiazol-3-yl)-7-[1,4]diazepam-1-yl-6-fluoro-1-(4-trifluoromethyl-benzyl)-1H-quinolin-4-one] | < 0.5 |
| O=c1c(-c2noc(Cc3ccccc3)n2)cn(Cc2ccc(C(F)(F)F)cc2)c2cc(NCCN3CCOCC3)c(F)cc12 [Compound 72, 3-(5-benzyl-[1,2,4]oxadiazol-3-yl)-6-fluoro-7-(2-morpholin-4-yl-ethylamino)-1-(4-trifluoromethyl-benzyl)-1H-quinolin-4-one] | < 2 |
| O=c1c(-c2noc(Cc3ccccc3)n2)cn(Cc2ccc(C(F)(F)F)cc2)c2cc(NCCOCCO)c(F)cc12 [Compound 73, 3-(5-benzyl-[1,2,4]oxadiazol-3-yl)-6-fluoro-7-[2-(2-hydroxy-ethoxy)-ethylamino]-1-(4-trifluoromethyl-benzyl)-1H-quinolin-4-one] | < 10 |
| CN(C)c1cc2c(cc1F)c(=O)c(-c1noc(Cc3ccccc3)n1)cn2Cc1ccc(C(F)(F)F)cc1 [Compound 74, 3-(5-benzyl-[1,2,4]oxadiazol-3-yl)-7-dimethylamino-6-fluoro-1-(4-trifluoromethyl-benzyl)-1H-quinolin-4-one] | < 2 |
| NCCNc1cc2c(cc1F)c(=O)c(-c1noc(Cc3ccccc3)n1)cn2Cc1ccc(C(F)(F)F)cc1 [Compound 75, 7-(2-amino-ethylamino)-3-(5-benzyl-[1,2,4]oxadiazol-3-yl)-6-fluoro-1-(4-trifluoromethyl-benzyl)-1H-quinolin-4-one] | > 10 |
| O=C(O)Cc1ccc2c(c1)c(=O)c(-c1noc(Cc3ccccc3)n1)cn2Cc1ccc(C(F)(F)F)cc1F [Compound 76, [3-(5-benzyl-[1,2,4]oxadiazol-3-yl)-1-(2-fluoro-4-trifluoromethyl-benzyl)-4-oxo-1,4-dihydro-quinolin-6-yl]-acetic acid] | > 10 |
| CN1CCN(c2cc3c(cc2F)c(=O)c(-c2noc(C(C)(C)c4ccccc4)n2)cn3Cc2ccc(C(F)(F)F)cc2F)CC1 [Compound 77, 6-fluoro-1-(2-fluoro-4-trifluoromethyl-benzyl)-3-[5-(1-methyl-1-phenyl-ethyl)-[1,2,4]oxadiazol-3-yl]-7-(4-methyl-piperazin-1-yl)-1H-quinolin-4-one] | < 0.5 |
| CN1CCN(c2cc3c(cc2F)c(=O)c(-c2noc(C4(c5ccccc5)CC4)n2)cn3Cc2ccc(C(F)(F)F)cc2F)CC1 [Compound 78, 6-fluoro-1-(2-fluoro-4-trifluoromethyl-benzyl)-7-(4-methyl-piperazin-1-yl)-3-[5-(1-phenyl-cyclopropyl)-[1,2,4]oxadiazol-3-yl]-1H-quinolin-4-one] | < 2 |
| CN1CCN(c2cc3c(cc2F)c(=O)c(-c2noc(Cc4ccccc4)n2)cn3CCc2ccccc2)CC1 [Compound 79, 3-(5-benzyl-[1,2,4]oxadiazol-3-yl)-6-fluoro-7-(4-methyl-piperazin-1-yl)-1-phenethyl-1H-quinolin-4-one] | > 10 |
| CN1CCN(c2cc3c(cc2F)c(=O)c(-c2noc(C(CCCC(N)=O)c4ccccc4)n2)cn3Cc2ccc(Cl)cc2)CC1 (stereo not drawn) [Compound 80, 5-{3-[1-(4-chloro-benzyl)-6-fluoro-7-(4-methyl-piperazin-1-yl)-4-oxo-1,4-dihydro-quinolin-3-yl]-[1,2,4]oxadiazol-5-yl}-5-phenyl-pentanamide] | < 2 |
| CN1CCN(c2cc3c(cc2F)c(=O)c(-c2noc(C(CCCC(=O)O)c4ccccc4)n2)cn3Cc2ccc(Cl)cc2)CC1 (stereo not drawn) [Compound 81, 5-{3-[1-(4-chloro-benzyl)-6-fluoro-7-(4-methyl-piperazin-1-yl)-4-oxo-1,4-dihydro-quinolin-3-yl]-[1,2,4]oxadiazol-5-yl}-5-phenyl-pentanoic acid] | < 10 |
| CN1CCN(c2cc3c(cc2F)c(=O)c(-c2noc(C(CCCCN)c4ccccc4)n2)cn3Cc2ccc(Cl)cc2)CC1 (stereo not drawn) [Compound 82, 3-[5-(5-amino-1-phenyl-pentyl)-[1,2,4]oxadiazol-3-yl]-1-(4-chloro-benzyl)-6-fluoro-7-(4-methyl-piperazin-1-yl)-1H-quinolin-4-one] | < 10 |
| O=c1c(-c2noc(Cc3ccccc3)n2)cn(Cc2ccc(C(F)(F)F)cc2)c2cc(N(CCO)CCO)c(F)cc12 [Compound 83, 3-(5-benzyl-[1,2,4]oxadiazol-3-yl)-7-[bis-(2-hydroxy-ethyl)-amino]-6-fluoro-1-(4-trifluoromethyl-benzyl)-1H-quinolin-4-one] | < 10 |
| O=c1c(-c2noc(Cc3ccccc3)n2)cn(Cc2ccc(C(F)(F)F)cc2)c2cc(-n3ccnc3)c(F)cc12 [Compound 84, 3-(5-benzyl-[1,2,4]oxadiazol-3-yl)-6-fluoro-7-imidazol-1-yl-1-(4-trifluoromethyl-benzyl)-1H-quinolin-4-one] | < 2 |
| CC(=O)NCCCCC(c1ccccc1)c1nc(-c2cn(Cc3ccc(Cl)cc3)c3cc(N4CCN(C)CC4)c(F)cc3c2=O)no1 (stereo not drawn) [Compound 85, N-(5-{3-[1-(4-chloro-benzyl)-6-fluoro-7-(4-methyl-piperazin-1-yl)-4-oxo-1,4-dihydro-quinolin-3-yl]-[1,2,4]oxadiazol-5-yl}-5-phenyl-pentyl)-acetamide] | < 2 |
| CN1CCN(c2cc3c(cc2F)c(=O)c(-c2noc(C(CCCCNC(=O)OC(C)(C)C)c4ccccc4)n2)cn3Cc2ccc(Cl)cc2)CC1 (stereo not drawn) [Compound 86, tert-butyl (5-{3-[1-(4-chloro-benzyl)-6-fluoro-7-(4-methyl-piperazin-1-yl)-4-oxo-1,4-dihydro-quinolin-3-yl]-[1,2,4]oxadiazol-5-yl}-5-phenyl-pentyl)-carbamate] | < 10 |
| O=C1CN(c2cc3c(cc2F)c(=O)c(-c2noc(Cc4ccc(F)cc4)n2)cn3Cc2ccc(C(F)(F)F)cc2F)CCN1 [Compound 87, 6-fluoro-3-[5-(4-fluoro-benzyl)-[1,2,4]oxadiazol-3-yl]-1-(2-fluoro-4-trifluoromethyl-benzyl)-7-(3-oxo-piperazin-1-yl)-1H-quinolin-4-one] | < 0.5 |
| CN1CCN(c2cc3c(cc2F)c(=O)c(-c2noc(C(CCCC#N)c4ccccc4)n2)cn3Cc2ccc(C(F)(F)F)cc2F)CC1 (stereo not drawn) [Compound 88a, 5-{3-[6-fluoro-1-(2-fluoro-4-trifluoromethyl-benzyl)-7-(4-methyl-piperazin-1-yl)-4-oxo-1,4-dihydro-quinolin-3-yl]-[1,2,4]oxadiazol-5-yl}-5-phenyl-pentanenitrile] | < 0.5 |
| CN1CCN(c2cc3c(cc2F)c(=O)c(-c2noc(Cc4ccc(F)cc4)n2)cn3C2(c3ccc(C(F)(F)F)cc3)CC2)CC1 [Compound 88b, 6-fluoro-3-[5-(4-fluoro-benzyl)-[1,2,4]oxadiazol-3-yl]-7-(4-methyl-piperazin-1-yl)-1-[1-(4-trifluoromethyl-phenyl)-cyclopropyl]-1H-quinolin-4-one] | < 2 |
| CN1CCN(c2cc3c(cc2F)c(=O)c(-c2noc(C(CCCC(N)=O)c4ccccc4)n2)cn3Cc2ccc(C(F)(F)F)cc2F)CC1 (stereo not drawn) [Compound 89, 5-{3-[6-fluoro-1-(2-fluoro-4-trifluoromethyl-benzyl)-7-(4-methyl-piperazin-1-yl)-4-oxo-1,4-dihydro-quinolin-3-yl]-[1,2,4]oxadiazol-5-yl}-5-phenyl-pentanamide] | < 0.5 |
| CN1CCN(c2cc3c(cc2F)c(=O)c(-c2noc(C4(c5ccccc5)CC4)n2)cn3C2(c3ccc(C(F)(F)F)cc3)CC2)CC1 [Compound 90, 6-fluoro-7-(4-methyl-piperazin-1-yl)-3-[5-(1-phenyl-cyclopropyl)-[1,2,4]oxadiazol-3-yl]-1-[1-(4-trifluoromethyl-phenyl)-cyclopropyl]-1H-quinolin-4-one] | > 10 |
| CN1CCN(c2cc3c(cc2F)c(=O)c(-c2noc(Cc4ccc(F)cc4)n2)cn3Cc2cccc(C(F)(F)F)c2)CC1 [Compound 91, 6-fluoro-3-[5-(4-fluoro-benzyl)-[1,2,4]oxadiazol-3-yl]-7-(4-methyl-piperazin-1-yl)-1-(3-trifluoromethyl-benzyl)-1H-quinolin-4-one] | < 2 |
| CN1CCN(c2cc3c(cc2F)c(=O)c(-c2noc(C(C)(C)c4ccccc4)n2)cn3Cc2ccc(Cl)nc2)CC1 [Compound 92, 1-(6-chloro-pyridin-3-ylmethyl)-6-fluoro-3-[5-(1-methyl-1-phenyl-ethyl)-[1,2,4]oxadiazol-3-yl]-7-(4-methyl-piperazin-1-yl)-1H-quinolin-4-one] | < 0.5 |
| O=c1c(-c2noc(Cc3ccccc3)n2)cn(Cc2ccc(C(F)(F)F)cc2F)c2ccccc12 [Compound 94, 3-(5-benzyl-[1,2,4]oxadiazol-3-yl)-1-(2-fluoro-4-trifluoromethyl-benzyl)-1H-quinolin-4-one] | > 10 |
| N#CCCCC(c1ccccc1)c1nc(-c2cn(Cc3ccc(C(F)(F)F)cc3F)c3ccccc3c2=O)no1 (stereo not drawn) [Compound 95, 5-{3-[1-(2-fluoro-4-trifluoromethyl-benzyl)-4-oxo-1,4-dihydro-quinolin-3-yl]-[1,2,4]oxadiazol-5-yl}-5-phenyl-pentanenitrile] | > 10 |
| CN1CCN(c2cc3c(cc2F)c(=O)c(-c2noc(C(C)(C)c4ccccc4)n2)cn3C2(c3ccc(C(F)(F)F)cc3)CC2)CC1 [Compound 96, 6-fluoro-3-[5-(1-methyl-1-phenyl-ethyl)-[1,2,4]oxadiazol-3-yl]-7-(4-methyl-piperazin-1-yl)-1-[1-(4-trifluoromethyl-phenyl)-cyclopropyl]-1H-quinolin-4-one] | < 0.5 |
